Assay results published in patent US20260285853A1, “COMPOUNDS AND METHODS FOR MODULATING SPLICING” (REMIX THERAPEUTICS INC., priority 2023, published 2026).

Key:
Format in all cases: cell-based
[1] = test system: SH-SY5Y (human neuroblastoma) cells; experiment: Cell viability, Cell Titer Glo 2.0 assay; details: read-out: Viability SHSY5Y.3 GI50
Procedure, shortened: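 Following a 72 h incubation (37 °C, 5% CO2, 0.1% DMSO final), compound toxicity toward SH-SY5Y cells was quantified by CellTiter-Glo 2.0.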

HTT mRNA = experiment: Gene panel canonical junction qPCR assay, decrease in CJ mRNA, Table 3; details: decrease in canonical junction (CJ) mRNA, gene panel qPCR, Table 3
Procedure, shortened: (§1)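 Eleven-point dose responses from 10 uM final, 24 h, DMSO ≤0.25%, in A673 or K562 cells. Relative quantification by 2^(−ΔΔCt) against housekeeper and vehicle was converted to percent response over fixed ΔCt windows and fitted to yield IC50.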

SMN2 mRNA = experiment: as above; details: decrease in canonical junction (CJ) mRNA, gene panel qPCR, Table 3
Procedure, shortened: as §1

MYB mRNA = experiment: as above; details: decrease in canonical junction (CJ) mRNA, gene panel qPCR, Table 3
Procedure, shortened: as §1

SMILES	GI50 [1]	IC50 (HTT mRNA)	IC50 (SMN2 mRNA)	IC50 (MYB mRNA)
CNC1(C)CCN(c2cc(F)c(C(=O)Nc3cn4cc(C)nc4c(F)c3OC)c3nn(C)cc23)CC1 [Compound 180, 6-fluoro-N-(8-fluoro-7-methoxy-2-methyl-imidazo[1,2-a]pyridin-6-yl)-2-methyl-4-[4-methyl-4-(methylamino)-1-piperidyl]indazole-7-carboxamide]	< 0.1 µM	< 0.1 µM	< 0.1 µM	< 0.1 µM
Cc1cn2cc(NC(=O)c3ccc(N4CCC(NC5CC5)CC4)c4ccoc34)cc(F)c2n1 [Compound 191, 4-[4-(cyclopropylamino)-1-piperidyl]-N-(8-fluoro-2-methyl-imidazo[1,2-a]pyridin-6-yl) benzofuran-7-carboxamide]	0.1 to 1 µM	1 to 10 µM	< 0.1 µM	0.1 to 1 µM
Cc1cn2cc(NC(=O)c3ccc(N4C[C@H](C)N[C@@H](C)C4)c4[nH]cnc34)cc(F)c2n1 [Compound 221, 7-[(3S,5S)-3,5-dimethylpiperazin-1-yl]-N-(8-fluoro-2-methylimidazo[1,2-a]pyridin-6-yl)-1H-1,3-benzodiazole-4-carboxamide]	1 to 10 µM	> 10 µM	< 0.1 µM	0.1 to 1 µM
Cc1cn2cc(NC(=O)c3ccc(N4C[C@@H](C)N[C@@H](C)C4)c4nnn(C)c34)cc(F)c2n1 [Compound 261, 7-[(3R,5S)-3,5-dimethylpiperazin-1-yl]-N-(8-fluoro-2-methyl-imidazo[1,2-a]pyridin-6-yl)-3-methyl-benzotriazole-4-carboxamide]	> 10 µM	> 10 µM	> 10 µM	> 10 µM

Other lines, results leading:

GI50 [1]	IC50 (HTT mRNA)	IC50 (SMN2 mRNA)	IC50 (MYB mRNA)	SMILES
1 to 10 µM	1 to 10 µM	< 0.1 µM	0.1 to 1 µM	CO[C@H]1C[C@H](N[C@H]2CCN(c3ccc(C(=O)Nc4cc(F)c5nc(C)cn5c4)c4nn(C)cc34)C2)C1 [Compound 275, N-(8-fluoro-2-methylimidazo[1,2-a]pyridin-6-yl)-4-((S)-3-(((1r,3S)-3-methoxycyclobutyl)amino)pyrrolidin-1-yl)-2-methyl-2H-indazole-7-carboxamide]
0.1 to 1 µM	1 to 10 µM	< 0.1 µM	0.1 to 1 µM	Cc1cn2cc(NC(=O)c3ccc(N4CCC(NC5CC5)CC4)c4cc(C)oc34)cc(F)c2n1 [Compound 185, 4-[4-(cyclopropyl-amino)-1-piperidyl]-N-(8-fluoro-2-methyl-imidazo[1,2-a]pyridin-6-yl)-2-methyl-benzofuran-7-carboxamide]
0.1 to 1 µM	0.1 to 1 µM	< 0.1 µM	< 0.1 µM	Cc1cn2cc(NC(=O)c3ccc(N4CCC(NC5CC5C)CC4)c4cn(C)nc34)cc(F)c2n1 (stereo not shown) [Compound 204, N-(8-fluoro-2-methyl-imidazo[1,2-a]pyridin-6-yl)-2-methyl-4-[4-[(2-methyl-cyclopropyl)amino]-1-piperidyl] indazole-7-carboxamide]
